Assay results as given in the NIST ThermoML archive (doi:10.1016/j.fluid.2017.12.026).

Details: Coaxial cylinder method

CCCCC [pentane]
Details | thermal conductivity [W/m/K]
465.4 K, 9497 kPa, Liquid | 0.07785
465.4 K, 9610 kPa, Liquid | 0.07785
465.4 K, 9891 kPa, Liquid | 0.07814
466.27 K, 100 kPa, Gas | 0.03453
466.28 K, 100 kPa, Gas | 0.03449
466.29 K, 100 kPa, Gas | 0.03442
466.3 K, 100 kPa, Gas | 0.03439
466.7 K, 100 kPa, Gas | 0.03462
467.36 K, 11000 kPa, Liquid | 0.08067
467.36 K, 11500 kPa, Liquid | 0.08129
467.36 K, 12000 kPa, Liquid | 0.08175
467.36 K, 13000 kPa, Liquid | 0.08285
467.36 K, 13800 kPa, Liquid | 0.08362
467.36 K, 15200 kPa, Liquid | 0.08486
467.36 K, 16000 kPa, Liquid | 0.08553
467.36 K, 16500 kPa, Liquid | 0.08593
467.36 K, 17000 kPa, Liquid | 0.08638
467.36 K, 17500 kPa, Liquid | 0.08673
467.36 K, 18000 kPa, Liquid | 0.08718
467.36 K, 18500 kPa, Liquid | 0.0876
467.36 K, 19000 kPa, Liquid | 0.08803
467.36 K, 19500 kPa, Liquid | 0.08843
467.36 K, 20000 kPa, Liquid | 0.08879
467.36 K, 20500 kPa, Liquid | 0.08919
467.36 K, 21000 kPa, Liquid | 0.08956
467.36 K, 21500 kPa, Liquid | 0.08989
467.36 K, 22000 kPa, Liquid | 0.09031
467.36 K, 22500 kPa, Liquid | 0.09068
467.36 K, 23000 kPa, Liquid | 0.0911
467.36 K, 23500 kPa, Liquid | 0.09141
467.36 K, 24000 kPa, Liquid | 0.0918
467.36 K, 24500 kPa, Liquid | 0.09219
467.36 K, 25000 kPa, Liquid | 0.09258
467.36 K, 25500 kPa, Liquid | 0.09286
467.36 K, 26000 kPa, Liquid | 0.09318
467.36 K, 26500 kPa, Liquid | 0.09358
467.36 K, 27000 kPa, Liquid | 0.0939
467.36 K, 27500 kPa, Liquid | 0.09419
467.36 K, 28000 kPa, Liquid | 0.09456
467.36 K, 28500 kPa, Liquid | 0.09489
467.36 K, 29000 kPa, Liquid | 0.09522
467.36 K, 29500 kPa, Liquid | 0.09552
467.36 K, 30000 kPa, Liquid | 0.09583
467.36 K, 30500 kPa, Liquid | 0.09613
467.36 K, 31000 kPa, Liquid | 0.09634
467.36 K, 31280 kPa, Liquid | 0.09643
467.36 K, 31300 kPa, Liquid | 0.09647
467.36 K, 31340 kPa, Liquid | 0.09656
467.76 K, 100 kPa, Gas | 0.03471
468.02 K, 100 kPa, Gas | 0.03483
468.08 K, 100 kPa, Gas | 0.03457
468.57 K, 100 kPa, Gas | 0.03481
469.93 K, 100 kPa, Gas | 0.03492
470.04 K, 2036 kPa, Gas | 0.03754
470.07 K, 100 kPa, Gas | 0.03498
470.2 K, 100 kPa, Gas | 0.03485
471.68 K, 100 kPa, Gas | 0.03523
472.17 K, 1697 kPa, Gas | 0.03753
472.21 K, 100 kPa, Gas | 0.03519
472.84 K, 100 kPa, Gas | 0.03528
472.97 K, 100 kPa, Gas | 0.03526
473.01 K, 100 kPa, Gas | 0.03533
473.86 K, 100 kPa, Gas | 0.03563
474.81 K, 100 kPa, Gas | 0.03571
475.4 K, 100 kPa, Gas | 0.03567
475.7 K, 10375 kPa, Gas | 0.07726
475.7 K, 17575 kPa, Gas | 0.0849
475.7 K, 19975 kPa, Gas | 0.08712
475.7 K, 24775 kPa, Gas | 0.0897
475.7 K, 29975 kPa, Gas | 0.09365
475.7 K, 40275 kPa, Gas | 0.09992
475.7 K, 48475 kPa, Gas | 0.1033
476.21 K, 100 kPa, Gas | 0.03593
478.08 K, 100 kPa, Gas | 0.03587
478.2 K, 100 kPa, Gas | 0.03595
478.5 K, 2001 kPa, Gas | 0.03835
478.5 K, 10175 kPa, Gas | 0.07793
478.5 K, 19775 kPa, Gas | 0.08695
478.5 K, 20375 kPa, Gas | 0.08696
478.5 K, 30175 kPa, Gas | 0.09387
478.5 K, 32975 kPa, Gas | 0.09616
478.5 K, 40175 kPa, Gas | 0.1002
